# Assays:
# APP translation in SN = assay: 35S-Met labeling and immunoprecipitation of newly synthesized APP in synaptoneurosomes; type: cell-based, mouse; details: WT SN, 40 μM anisomycin + 100 μM DHPG, 15 min
# Protocol: WT and KO SNs (450 μl) were mixed with 25 μl Redivue Pro-Mix-L [^35S] for 5 min prior to stimulation with 25 μl 2 mM DHPG. Samples were flash frozen at the indicated times. To analyze new protein synthesis, SN lysates were cleared of free isotope, Percoll®, and sucrose by purification with the PAGEprep Advance kit according to the manufacturer's directions. Protein concentrations were determined by the BCA assay, and 15 μg protein was denatured and loaded per lane on 12% SDS gels for content analysis. Gels were dried and exposed to a phosphorimager screen to identify the results of these assays.
# To specifically analyze APP synthesis, WT and KO SN lysates (500 μl) were immunoprecipitated with APP antibody. Briefly, SN lysates were precleared with protein A magnetic beads in 1 ml volumes containing 500 μl SNs, 500 μl 2×IP buffer (20 mM HEPES (pH 7.4), 400 mM NaCl, 60 mM EDTA (pH 8), and 2% Triton X-100), protease inhibitor cocktail, and 100 μl packed fresh protein A magnetic beads. For the immunoprecipitations, 10 μg anti-APP antibody (Zymed catalog number 51-2700) and fresh protein A magnetic beads were added and mixed overnight at 4° C. The beads were washed three times with IP buffer, and the final, washed pellets were suspended in 40 μl 2×SDS sample buffer and boiled for 5 min; the proteins were then separated on 12% SDS gels. The gels were transferred to a nitrocelluose membrane, dried, exposed to a phosphorimager screen, and scanned on a STORM 860 phosphorimager (Molecular Dynamics http://www6.amershambiosciences.com). APP bands at 120 kDa were quantitated with ImageQuant software (GE Healthcare Life Sciences, http://www4.amershambiosciences.com).
# For mGluR5 inhibitor studies, SNs (425 μl) were preincubated with 25 μl anisomycin (40 μM final concentration) or MPEP (10 μM final concentration) for 10 min prior to the addition of 25 μl ^35S-Met for 5 min and stimulation with DHPG (100 μM final concentration) for 15 min. Samples were processed as described in the preceding paragraph.
# To further assess FMRP regulation of APP levels in brain, cortical SN were prepared from WT mice and overall protein synthesis analyzed in response to DHPG (100 μM)-induced mGluR5 activation. SN were metabolically active as assessed by ^35S-Met incorporation. […]
# These conclusions were tested by assessing the effects on APP translation of contacting SN with a group 1 mGluR5 antagonist, 2-methyl-6-(phenylethynyl)-pyridine (MPEP). […] To assess the effect of MPEP, a specific mGluR5 antagonist, on DHPG stimulation of de novo APP synthesis, SN were pre-treated with 10 μM MPEP for 10 min prior to the addition of ^35S-Met for 5 min and stimulation with 100 μM DHPG for 15 min. ^35S-Met-labeled APP was immunoprecipitated with anti-APP antibodies and analyzed by SDS-PAGE. […]
# anxiety in mice = details: cited from earlier work
# rat mGluR8a = rat mGluR8a (Rattus norvegicus, UniProt P70579); details: doses up to 10 μm; cited from earlier work
# rat mGluR8a, sequence (P70579 34-908): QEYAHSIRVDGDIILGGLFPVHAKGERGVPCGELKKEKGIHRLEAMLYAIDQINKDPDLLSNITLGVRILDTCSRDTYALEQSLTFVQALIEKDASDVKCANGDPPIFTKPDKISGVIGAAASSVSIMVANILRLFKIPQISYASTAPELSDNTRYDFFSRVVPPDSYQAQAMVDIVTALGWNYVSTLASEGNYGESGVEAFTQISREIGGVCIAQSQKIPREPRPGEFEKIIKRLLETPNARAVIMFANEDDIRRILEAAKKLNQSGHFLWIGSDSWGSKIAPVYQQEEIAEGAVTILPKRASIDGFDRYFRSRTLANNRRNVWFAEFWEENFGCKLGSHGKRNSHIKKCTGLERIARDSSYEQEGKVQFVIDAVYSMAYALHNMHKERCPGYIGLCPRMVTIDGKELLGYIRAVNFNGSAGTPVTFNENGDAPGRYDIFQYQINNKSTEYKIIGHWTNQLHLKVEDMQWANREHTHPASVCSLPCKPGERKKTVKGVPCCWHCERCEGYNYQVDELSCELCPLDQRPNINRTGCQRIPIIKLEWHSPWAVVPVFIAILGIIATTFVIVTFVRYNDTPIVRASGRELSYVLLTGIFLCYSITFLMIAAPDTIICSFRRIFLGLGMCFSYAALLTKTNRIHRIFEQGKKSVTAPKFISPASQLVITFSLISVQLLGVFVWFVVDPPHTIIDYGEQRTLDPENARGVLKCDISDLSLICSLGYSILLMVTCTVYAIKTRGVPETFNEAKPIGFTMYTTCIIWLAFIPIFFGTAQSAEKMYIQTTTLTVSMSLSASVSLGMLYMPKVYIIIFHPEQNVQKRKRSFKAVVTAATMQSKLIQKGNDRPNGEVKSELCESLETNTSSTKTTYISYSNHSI
# [1] = tested on: Aβ1-40 and Aβ1-42 in Fmr-1 KO mouse brain; assay: Brain region Aβ ELISA after fenobam-supplemented diet in Fmr-1 KO mice
# Protocol: Fmr-1 KO mice were fed placebo or fenobam-supplemented lab diet for two months prior to harvesting brains for ELISA assays. Homogenates of hippocampus (H), cortex (Cx) and cerebellum (Cb) were analyzed by ELISA for Aβ1-40 and Aβ1-42. Data were plotted as a percentage of Aβ compared to levels in control mouse hippocampus. C: control, F: Fenobam.
# Fmr-1 KO mice were fed placebo or fenobam-supplemented lab diet for one month prior to harvesting brains for ELISA assays. Homogenates of hippocampus (H), cortex (Cx) and cerebellum (Cb) were analyzed by ELISA for Aβ1-40 and Aβ1-42. Data were plotted as a percentage of Aβ compared to levels in control mouse hippocampus.
# [2] = tested on: Aβ1-40 and Aβ1-42 in Tg2576 mouse brain; assay: Brain Aβ ELISA after chronic fenobam-supplemented diet in Tg2576 mice; details: one month
# Protocol: FIG. 12 is a graph illustrating the effects of fenobam treatment in Tg2576 mice. Tg2576 mice were fed placebo or fenobam-supplemented lab diet for one month prior to harvesting brains for ELISA assays. For chronic dosing, the diet was supplemented with 0.2 g fenobam per kg lab diet and colored red for visual differentiation with the placebo food. Whole brain homogenates from control and fenobam-treated mice were analyzed by ELISA for Aβ1-40 (left) and Aβ1-42 (right). Data were plotted as ng/mL Aβ per μg soluble brain lysate. […] The left bar in each group represents Aβ levels in mice fed with placebo food; and the right bar in each group represents Aβ levels in mice fed with fenobam-supplemented food.
# (§1) Mice were fed a fenobam-supplemented mouse food that was a purified ingredient diet formulated by Research Diets, Inc. (New Brunswick, N.J.) to match Purina 5015 lab diet in protein, carbohydrate and fat calories. For chronic dosing, the diet was supplemented with 0.2 g fenobam per kg lab diet and colored red for visual differentiation with the placebo food.
# After one month of chronic fenobam dosing, brain tissue was harvested and Aβ levels measured. Specifically assessed by ELISA were human (expressed from the APPSwe transgene) and mouse (endogenous) Aβ1-40 and Aβ1-42 levels.
# [3] = tested on: audiogenic seizures in mice; assay: Audiogenic seizure (AGS) testing; type: in vivo, mouse; details: treated (immunized or Purina + drug)
# anxiety in rats = details: cited from earlier work
# [4] = humans, cited from earlier work
# anxiety in humans = details: cited from earlier work
# rat mGluR7a = rat mGluR7a (Rattus norvegicus, UniProt P35400); details: doses up to 10 μm; cited from earlier work
# rat mGluR7a, sequence (P35400 35-915): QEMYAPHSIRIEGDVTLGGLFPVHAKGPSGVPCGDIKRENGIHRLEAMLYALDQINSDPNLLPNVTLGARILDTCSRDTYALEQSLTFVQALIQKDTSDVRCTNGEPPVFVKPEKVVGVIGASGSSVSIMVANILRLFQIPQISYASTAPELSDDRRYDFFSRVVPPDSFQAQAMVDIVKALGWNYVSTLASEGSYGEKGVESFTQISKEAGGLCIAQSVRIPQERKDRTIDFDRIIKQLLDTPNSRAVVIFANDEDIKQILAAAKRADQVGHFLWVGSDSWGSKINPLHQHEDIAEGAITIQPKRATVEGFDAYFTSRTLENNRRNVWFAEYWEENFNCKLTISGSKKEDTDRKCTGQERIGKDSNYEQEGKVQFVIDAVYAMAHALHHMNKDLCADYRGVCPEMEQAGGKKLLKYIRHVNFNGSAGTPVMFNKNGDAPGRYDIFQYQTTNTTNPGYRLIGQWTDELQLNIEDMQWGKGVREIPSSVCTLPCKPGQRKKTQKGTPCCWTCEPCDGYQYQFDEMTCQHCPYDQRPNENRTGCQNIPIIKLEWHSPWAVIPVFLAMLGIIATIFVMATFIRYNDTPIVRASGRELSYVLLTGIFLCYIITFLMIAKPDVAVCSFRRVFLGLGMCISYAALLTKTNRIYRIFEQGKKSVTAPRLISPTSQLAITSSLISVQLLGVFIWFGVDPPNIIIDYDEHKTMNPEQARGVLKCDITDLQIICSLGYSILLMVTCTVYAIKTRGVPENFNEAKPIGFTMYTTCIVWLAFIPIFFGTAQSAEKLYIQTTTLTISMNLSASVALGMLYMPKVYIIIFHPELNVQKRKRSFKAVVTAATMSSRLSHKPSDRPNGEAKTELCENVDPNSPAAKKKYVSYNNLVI
# [5] = Tolerability of fenobam-supplemented diet in Tg2576 mice; type: in vivo
# Description: as §1
# rat mGluR2 = rat mGluR2 (Rattus norvegicus, UniProt P31421); details: doses up to 10 μm; cited from earlier work
# rat mGluR2, sequence (P31421 19-872): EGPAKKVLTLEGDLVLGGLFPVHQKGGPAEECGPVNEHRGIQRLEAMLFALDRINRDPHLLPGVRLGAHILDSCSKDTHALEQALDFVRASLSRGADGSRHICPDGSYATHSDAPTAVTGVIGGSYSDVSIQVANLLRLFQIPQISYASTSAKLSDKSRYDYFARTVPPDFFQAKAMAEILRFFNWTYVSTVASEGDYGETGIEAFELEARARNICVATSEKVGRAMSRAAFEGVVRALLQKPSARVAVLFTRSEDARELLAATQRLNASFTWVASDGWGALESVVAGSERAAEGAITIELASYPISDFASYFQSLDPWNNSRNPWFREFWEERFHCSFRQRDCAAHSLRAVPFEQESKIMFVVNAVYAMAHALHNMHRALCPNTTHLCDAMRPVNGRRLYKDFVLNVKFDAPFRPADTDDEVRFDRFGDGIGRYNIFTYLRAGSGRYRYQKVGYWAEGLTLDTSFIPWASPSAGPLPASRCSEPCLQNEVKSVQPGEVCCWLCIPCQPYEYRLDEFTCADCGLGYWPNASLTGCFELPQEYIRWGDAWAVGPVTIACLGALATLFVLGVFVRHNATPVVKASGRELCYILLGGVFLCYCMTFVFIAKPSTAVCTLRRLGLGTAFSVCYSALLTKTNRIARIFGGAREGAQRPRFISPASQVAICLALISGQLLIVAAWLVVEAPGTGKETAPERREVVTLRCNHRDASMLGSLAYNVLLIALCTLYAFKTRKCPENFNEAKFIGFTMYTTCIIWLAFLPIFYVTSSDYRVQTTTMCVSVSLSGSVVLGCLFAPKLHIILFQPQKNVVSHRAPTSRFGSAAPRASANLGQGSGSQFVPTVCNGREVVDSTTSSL
# rat mGluR1a = rat mGluR1a (Rattus norvegicus, UniProt P23385); details: doses up to 10 μm; cited from earlier work
# rat mGluR1a, sequence (P23385 19-1199): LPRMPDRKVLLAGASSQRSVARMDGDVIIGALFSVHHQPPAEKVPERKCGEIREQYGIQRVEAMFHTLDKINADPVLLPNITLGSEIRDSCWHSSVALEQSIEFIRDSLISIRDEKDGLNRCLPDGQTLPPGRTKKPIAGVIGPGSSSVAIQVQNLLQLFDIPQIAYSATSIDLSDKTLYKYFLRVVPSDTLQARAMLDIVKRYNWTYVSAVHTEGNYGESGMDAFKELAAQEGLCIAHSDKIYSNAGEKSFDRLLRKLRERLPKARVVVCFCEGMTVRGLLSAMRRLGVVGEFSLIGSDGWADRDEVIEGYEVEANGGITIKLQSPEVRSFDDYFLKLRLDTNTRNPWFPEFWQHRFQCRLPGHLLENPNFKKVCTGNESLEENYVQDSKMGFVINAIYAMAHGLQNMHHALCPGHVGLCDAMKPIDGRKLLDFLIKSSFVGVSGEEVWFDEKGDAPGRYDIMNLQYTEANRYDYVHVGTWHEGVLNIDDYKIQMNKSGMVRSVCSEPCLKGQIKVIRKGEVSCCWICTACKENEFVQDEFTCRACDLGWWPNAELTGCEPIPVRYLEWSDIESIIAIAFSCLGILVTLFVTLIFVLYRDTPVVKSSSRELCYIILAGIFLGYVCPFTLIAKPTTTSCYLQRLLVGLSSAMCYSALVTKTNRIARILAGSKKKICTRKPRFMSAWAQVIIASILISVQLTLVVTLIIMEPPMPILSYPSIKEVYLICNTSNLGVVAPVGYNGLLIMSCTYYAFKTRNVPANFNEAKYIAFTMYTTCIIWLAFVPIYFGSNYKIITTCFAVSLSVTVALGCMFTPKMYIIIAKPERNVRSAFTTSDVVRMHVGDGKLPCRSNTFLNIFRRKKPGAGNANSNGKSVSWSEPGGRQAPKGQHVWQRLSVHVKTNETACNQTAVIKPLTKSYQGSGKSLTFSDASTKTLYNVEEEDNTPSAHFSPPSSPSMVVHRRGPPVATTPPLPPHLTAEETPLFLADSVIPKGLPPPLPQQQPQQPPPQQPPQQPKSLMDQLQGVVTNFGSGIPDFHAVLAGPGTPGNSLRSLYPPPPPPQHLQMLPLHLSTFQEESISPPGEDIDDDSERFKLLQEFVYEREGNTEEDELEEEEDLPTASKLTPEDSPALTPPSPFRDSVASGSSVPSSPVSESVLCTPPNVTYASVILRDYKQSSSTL
# mGluR5 = mGluR5 (Homo sapiens, UniProt P41594); details: shared allosteric modulatory site; cited from earlier work
# rat mGluR4a = rat mGluR4a (Rattus norvegicus, UniProt P31423); details: doses up to 10 μm; cited from earlier work
# rat mGluR4a, sequence (P31423 33-912): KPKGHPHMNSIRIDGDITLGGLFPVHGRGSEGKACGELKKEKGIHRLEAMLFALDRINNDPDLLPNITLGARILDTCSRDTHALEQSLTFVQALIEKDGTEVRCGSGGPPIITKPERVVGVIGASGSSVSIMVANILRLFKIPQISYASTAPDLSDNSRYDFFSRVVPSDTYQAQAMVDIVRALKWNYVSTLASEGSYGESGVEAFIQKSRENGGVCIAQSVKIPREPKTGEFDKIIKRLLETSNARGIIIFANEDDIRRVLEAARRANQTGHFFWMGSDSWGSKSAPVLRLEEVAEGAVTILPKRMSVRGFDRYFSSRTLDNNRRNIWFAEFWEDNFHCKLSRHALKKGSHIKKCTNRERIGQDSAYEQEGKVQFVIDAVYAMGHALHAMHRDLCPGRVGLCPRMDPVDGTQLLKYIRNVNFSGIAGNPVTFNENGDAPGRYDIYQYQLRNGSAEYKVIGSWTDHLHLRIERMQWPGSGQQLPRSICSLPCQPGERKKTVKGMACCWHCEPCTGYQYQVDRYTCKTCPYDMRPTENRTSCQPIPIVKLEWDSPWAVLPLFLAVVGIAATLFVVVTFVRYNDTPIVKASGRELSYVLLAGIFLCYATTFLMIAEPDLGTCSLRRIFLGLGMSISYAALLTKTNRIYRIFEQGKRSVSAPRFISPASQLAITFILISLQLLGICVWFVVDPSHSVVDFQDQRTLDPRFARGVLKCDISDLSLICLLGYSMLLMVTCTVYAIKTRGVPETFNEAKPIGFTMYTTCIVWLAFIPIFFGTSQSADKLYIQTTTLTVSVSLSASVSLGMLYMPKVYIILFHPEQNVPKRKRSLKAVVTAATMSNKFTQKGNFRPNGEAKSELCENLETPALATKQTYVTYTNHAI
smiles,measurement,setting,value
COc1ccc(C[C@H]2NC[C@H](O)[C@H]2OC(C)=O)cc1 [anisomycin],effect on mGluR activation of APP translation,APP translation in SN,blocked
CN1CC(=O)N=C1NC(=O)Nc1cccc(Cl)c1.O=S(=O)(O)O [fenobam],effect on anxiety,anxiety in mice,reduces anxiety
same,activity toward rat mGluR8a,rat mGluR8a,no activity
same,decrease in Aβ1-42 in the cortex,[1]; fenobam food 1 month,40%
same,Aβ1-42 in hippocampus and cortex,[1]; fenobam food 2 months,modest reductions
same,decrease in Aβ1-40 in cerebellum,[1]; fenobam food 2 months,19%
same,decrease in Aβ1-40 in cortex,[1]; fenobam food 2 months,26%
same,reduction in Aβ1-42 in the cerebellum,[1]; fenobam food 2 months,4.2 fold
same,mouse Aβ1-42 levels,"[2]; Tg2576, fenobam diet",no change
same,mouse Aβ1-40 level in brain,[2]; Tg2576 males on fenobam food,60 ng/mL/µg
same,"human Aβ levels, control vs fenobam-fed","[2]; Tg2576 mice, 0.2 g fenobam per kg diet",No change
same,decrease in mouse Aβ1-40 levels,"[2]; male Tg2576, 0.2 g fenobam per kg diet",11.5 fold
same,% Death,[3]; DS (Ts65Dn) mice,0%
same,% WR,[3]; DS (Ts65Dn) mice,58%
same,% AGS,"[3]; DS (Ts65Dn) mice, listed as Fenobaum",0%
same,% AGS,"[3]; DS (Ts65Dn) mice, listed as fenobaum",attenuates seizures
same,% AGS,[3]; WT littermates of DS model,0%
same,% Death,[3]; WT littermates of DS model,0%
same,% WR,[3]; WT littermates of DS model,0%
same,effect on anxiety,anxiety in rats,reduces anxiety
same,side effects,[4]; therapeutically-effective dosages,no harmful side effects
same,"side effects in one study (Friedmann et al., 1980)",[4],psycho-stimulating properties
same,effect on anxiety,anxiety in humans,reduces anxiety
same,activity toward rat mGluR7a,rat mGluR7a,no activity
same,premature death,"[5]; Tg2576 mice, 0.2 g fenobam per kg diet, chronic dosing",no incidences of premature death
same,adverse side effects,"[5]; mouse, in vivo",No adverse side effects
same,weight gain,"[5]; mouse, in vivo",normal weight gain
same,activity toward rat mGluR2,rat mGluR2,no activity
same,activity toward rat mGluR1a,rat mGluR1a,no activity
same,mGluR5 antagonist character,mGluR5,potent and highly selective noncompetitive antagonists
same,activity toward rat mGluR4a,rat mGluR4a,no activity

# From patent publication US20130149721A1, “Methods for Inhibiting Amyloid Precursor Protein and Beta-Amyloid Production and Accumulation” (WISCONSIN ALUMNI RESEARCH FOUNDATION, priority 2008, published 2013)
